In patent publication US20180110762A1, “Compositions Methods for Treating Chronic Kidney Disease” (Merck Sharp & Dohme Corp, priority 2015, published 2018):

Experiments:
[1] = target: T1, Human recombinant integrin α5β1 (Homo sapiens, UniProt P05556+P08648); experiment: Solid phase receptor assay, α5β1 (fibronectin); format: binding
T1 construct: purchased R&D Systems
Experimental: The assay was performed according to the method described in International Patent Publication WO 2014/015054 A1 “Beta Amino Acid Derivatives As Integrin Antagonists.” Briefly, 96-well plates were coated overnight with purified fibronectin or vitronectin (R&D Systems) in TBS+ buffer (25 mM Tris 7.4, 137 mM NaCl, 2.7 mM KCl, 1 mM CaCl2, 1 mM MgCl2, 1 mM MnCl2). Compound A was added at different concentrations to recombinant human integrin proteins (R&D Systems) reconstituted in TBS+/0.1% bovine serum albumin, and 50 μL of this mixture were added to the empty wells of the coated plate and incubated for 1-2 hours. After 3 washes, 50 μL of biotinylated antibody (R&D Systems) in TBS+/0.1% bovine serum albumin were added. The procedure continued with three more washes, addition of 50 μL of streptavidin-conjugated horseradish peroxidase (R&D Systems), and incubation for 20 minutes. After 3 more washes, 50 μL of tetramethylbenzidine (TMB) substrate (SIGMA) were added and plates were read after 20 min by colorimetric detection at 650 nm wavelength in an EnVision Multilabel Plate Reader (Perkin Elmer). The concentrations of fibronectin used were: 2 μg/mL for the α5β1 assay and 5 μg/mL for the αvβ1 assay. The concentrations of vitronectin used were: 1 μg/mL for the αvβ3 assay and 0.25 μg/mL for the αvβ5 assay. […]

[2] = test system: male obese ZSF1 rats (diabetic nephropathy model); experiment: ZSF1 rat 28-week in-feed study: urinary protein (UPCR, 24 h excretion); format: in vivo; conditions: for 24 h Urinary Protein Excretion / UPCR (urinary protein/creatinine ratio): obese ZSF1 rats
Experimental: (§1) The effects of Compound A (“A”) on renal function, plasma triglycerides, plasma cholesterol, kidney collagen I, kidney collagen III, renal histology, glomerular filtration rate, fibrosis score, and mRNA gene expression (profibrotic genes and integrin β3) were evaluated in male obese ZSF1 rats (a hybrid F1 of Zucker diabetic fatty rat and spontaneously hypertensive heart failure rat; a diabetic nephropathy model) when administered as in-feed for 28 weeks. Sixty obese male ZSF1 rats were randomized to five groups: Obese control (n=12), Compound A 60 mpk (n=12), Compound A 200 mpk (n=12), Compound A 400 mpk (n=12), Enalapril 10 mpk (n=12); Eight lean male ZSF1 rats were used for normal control. Renal functional changes were monitored by blood and urine analysis following in-feed dosing for 28 weeks. Compound exposure was also monitored during the study.

[3] = test system: male obese ZSF1 rats (diabetic nephropathy model); experiment: ZSF1 rat study: renal fibrosis score (histology); format: in vivo; conditions: for renal fibrosis score (expressed as 0-5): obese ZSF1 rats, week 28
Experimental: as §1
Upon completion of the study, animals were euthanized and blood and organs (kidney, heart, aorta, eyes, and lumber vertebrae (LV1-LV5) and left femur) were collected for histology assessment (including EM for the kidneys) or DEXA scan (lumber vertebrae and left femur). Kidney tissues were fixed in 10% formalin and then paraffin embedded. Tissue sections were stained with hematoxylin and eosin (H&E), periodic acid-Schiff (PAS), and Masson's trichrome and evaluated under light microscope. The severity of histopathologic changes in renal tubules, interstitium, vasculature, and glomeruli were graded on a 1 to 5 scale corresponding to minimal, mild, moderate, marked, and severe as described previously. Sections from both kidneys were examined. Collagen deposition in the kidney was graded on a 1 to 5 scale corresponding to minimal, mild, moderate, marked, and severe, based on the blue stained area size and intensity.

[4] = ZSF-1 rats vs untreated obese ZSF-1 rats (summary)

T1 sequence (P08648 42-995 limits assumed): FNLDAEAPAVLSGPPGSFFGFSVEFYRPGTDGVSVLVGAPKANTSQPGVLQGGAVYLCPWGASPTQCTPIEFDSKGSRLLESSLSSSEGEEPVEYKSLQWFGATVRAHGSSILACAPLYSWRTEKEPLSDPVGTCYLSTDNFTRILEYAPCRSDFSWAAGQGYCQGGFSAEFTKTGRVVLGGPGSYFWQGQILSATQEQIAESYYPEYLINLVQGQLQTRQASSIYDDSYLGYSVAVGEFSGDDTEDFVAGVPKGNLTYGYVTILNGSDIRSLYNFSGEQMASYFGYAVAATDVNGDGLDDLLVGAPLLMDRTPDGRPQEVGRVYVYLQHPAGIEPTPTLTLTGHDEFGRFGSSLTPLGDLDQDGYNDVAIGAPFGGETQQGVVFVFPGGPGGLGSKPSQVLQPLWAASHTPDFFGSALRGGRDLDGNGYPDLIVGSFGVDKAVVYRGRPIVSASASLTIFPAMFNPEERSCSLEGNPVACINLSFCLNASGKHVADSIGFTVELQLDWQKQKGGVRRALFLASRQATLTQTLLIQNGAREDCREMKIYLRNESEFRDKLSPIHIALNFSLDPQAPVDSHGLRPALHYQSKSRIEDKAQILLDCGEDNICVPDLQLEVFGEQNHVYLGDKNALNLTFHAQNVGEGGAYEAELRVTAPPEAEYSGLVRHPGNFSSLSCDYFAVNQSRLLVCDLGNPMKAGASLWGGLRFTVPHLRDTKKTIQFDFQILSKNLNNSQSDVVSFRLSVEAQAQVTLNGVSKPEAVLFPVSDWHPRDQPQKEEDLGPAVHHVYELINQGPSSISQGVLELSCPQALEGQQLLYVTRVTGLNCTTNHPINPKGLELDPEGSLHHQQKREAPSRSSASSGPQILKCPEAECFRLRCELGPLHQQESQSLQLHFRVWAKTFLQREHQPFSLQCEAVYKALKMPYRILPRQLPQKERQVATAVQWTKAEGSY
T1 sequence (P05556 21-728 limits assumed): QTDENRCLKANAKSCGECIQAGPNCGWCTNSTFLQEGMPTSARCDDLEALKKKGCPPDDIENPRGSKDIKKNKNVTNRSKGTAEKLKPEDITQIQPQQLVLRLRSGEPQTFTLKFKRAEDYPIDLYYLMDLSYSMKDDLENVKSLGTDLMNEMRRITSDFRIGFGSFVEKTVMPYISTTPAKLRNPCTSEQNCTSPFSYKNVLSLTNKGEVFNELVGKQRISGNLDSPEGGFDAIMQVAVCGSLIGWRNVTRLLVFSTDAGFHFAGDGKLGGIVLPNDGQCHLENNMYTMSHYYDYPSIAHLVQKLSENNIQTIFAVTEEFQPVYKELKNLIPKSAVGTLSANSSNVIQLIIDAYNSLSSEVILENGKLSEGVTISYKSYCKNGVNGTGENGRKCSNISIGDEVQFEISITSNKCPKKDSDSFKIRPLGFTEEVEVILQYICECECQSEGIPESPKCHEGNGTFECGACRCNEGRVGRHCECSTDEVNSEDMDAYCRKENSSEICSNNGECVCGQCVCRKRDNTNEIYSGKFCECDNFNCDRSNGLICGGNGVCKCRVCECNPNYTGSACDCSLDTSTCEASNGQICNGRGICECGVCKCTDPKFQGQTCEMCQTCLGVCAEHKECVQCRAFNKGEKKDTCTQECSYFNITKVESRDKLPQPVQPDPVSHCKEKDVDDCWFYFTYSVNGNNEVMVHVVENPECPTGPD

SMILES: COc1ccc([C@H](CC(=O)O)N2CCN(CCCc3ccc4c(n3)NCCC4)C2=O)cn1 [Compound A, 3-{2-Oxo-3-[3-(5,6,7,8-tetrahydro-[1,8]naphthyridin-2-yl)-propyl]imidazolidin-1-yl}-3 (S)-(6-methoxy-pyridin-3-yl)-propionic acid]
- IC50 ([1]; α5β1, first of two experiments): 4.9 nM
- IC50 ([1]; α5β1, second of two experiments): 19.6 nM
- effect on urinary protein/creatinine ratio (UPCR) ([2]; 400 mpk, 16-, 21-, 24- and 28-week of treatment): significantly decreased
- effect on 24 h urinary protein excretion ([2]; 400 mpk, 16-, 24- and 28-week of treatment): significantly decreased
- renal protection: proteinuria and albuminuria [2, 4]: ameliorating proteinuria and albuminuria
- 24 h Urinary Protein Excretion ([2]; 60 mpk in-feed, week 1): 137.2 ± 12.7 mg/24 h
- UPCR (urinary protein/creatinine ratio) ([2]; 60 mpk in-feed, week 1): 12.3 ± 1.0 mg/mg
- 24 h Urinary Protein Excretion ([2]; 60 mpk in-feed, week 2): 139.6 ± 11.8 mg/24 h
- UPCR (urinary protein/creatinine ratio) ([2]; 60 mpk in-feed, week 2): 11.9 ± 1.0 mg/mg
- 24 h Urinary Protein Excretion ([2]; 60 mpk in-feed, week 4): 158.4 ± 13.7 mg/24 h
- UPCR (urinary protein/creatinine ratio) ([2]; 60 mpk in-feed, week 4): 13.4 ± 1.1 mg/mg
- 24 h Urinary Protein Excretion ([2]; 60 mpk in-feed, week 6): 197.9 ± 15.7 mg/24 h
- UPCR (urinary protein/creatinine ratio) ([2]; 60 mpk in-feed, week 6): 16.6 ± 1.2 mg/mg
- 24 h Urinary Protein Excretion ([2]; 60 mpk in-feed, week 8): 265.7 ± 18.3 mg/24 h
- UPCR (urinary protein/creatinine ratio) ([2]; 60 mpk in-feed, week 8): 20.2 ± 1.4 mg/mg
- 24 h Urinary Protein Excretion ([2]; 60 mpk in-feed, week 12): 425.3 ± 21.6 mg/24 h
- UPCR (urinary protein/creatinine ratio) ([2]; 60 mpk in-feed, week 12): 30.8 ± 1.7 mg/mg
- 24 h Urinary Protein Excretion ([2]; 60 mpk in-feed, week 16): 462.2 ± 30.4 mg/24 h
- UPCR (urinary protein/creatinine ratio) ([2]; 60 mpk in-feed, week 16): 27.3 ± 1.7 mg/mg
- 24 h Urinary Protein Excretion ([2]; 60 mpk in-feed, week 21): 486.2 ± 39.2 mg/24 h
- UPCR (urinary protein/creatinine ratio) ([2]; 60 mpk in-feed, week 21): 27.7 ± 2.0+ mg/mg
- 24 h Urinary Protein Excretion ([2]; 60 mpk in-feed, week 24): 582.0 ± 43.9 mg/24 h
- UPCR (urinary protein/creatinine ratio) ([2]; 60 mpk in-feed, week 24): 34.4 ± 2.3 mg/mg
- 24 h Urinary Protein Excretion ([2]; 60 mpk in-feed, week 28): 654.3 ± 48.1 mg/24 h
- UPCR (urinary protein/creatinine ratio) ([2]; 60 mpk in-feed, week 28): 37.5 ± 2.8 mg/mg
- 24 h Urinary Protein Excretion ([2]; 60 mpk in-feed, week −2): 128.8 ± 11.0 mg/24 h
- UPCR (urinary protein/creatinine ratio) ([2]; 60 mpk in-feed, week −2): 10.9 ± 0.9 mg/mg
- 24 h Urinary Protein Excretion ([2]; 200 mpk in-feed, week 1): 117.7 ± 9.4 mg/24 h
- UPCR (urinary protein/creatinine ratio) ([2]; 200 mpk in-feed, week 1): 10.7 ± 0.8 mg/mg
- 24 h Urinary Protein Excretion ([2]; 200 mpk in-feed, week 2): 124.9 ± 10.9 mg/24 h
- UPCR (urinary protein/creatinine ratio) ([2]; 200 mpk in-feed, week 2): 10.9 ± 1.0 mg/mg
- 24 h Urinary Protein Excretion ([2]; 200 mpk in-feed, week 4): 140.0 ± 12.4 mg/24 h
- UPCR (urinary protein/creatinine ratio) ([2]; 200 mpk in-feed, week 4): 12.1 ± 1.1 mg/mg
- 24 h Urinary Protein Excretion ([2]; 200 mpk in-feed, week 6): 167.1 ± 15.0 mg/24 h
- UPCR (urinary protein/creatinine ratio) ([2]; 200 mpk in-feed, week 6): 14.1 ± 1.2 mg/mg
- 24 h Urinary Protein Excretion ([2]; 200 mpk in-feed, week 8): 233.9 ± 18.7 mg/24 h
- UPCR (urinary protein/creatinine ratio) ([2]; 200 mpk in-feed, week 8): 18.0 ± 1.5 mg/mg
- 24 h Urinary Protein Excretion ([2]; 200 mpk in-feed, week 12): 400.5 ± 20.5 mg/24 h
- UPCR (urinary protein/creatinine ratio) ([2]; 200 mpk in-feed, week 12): 28.7 ± 1.6 mg/mg
- 24 h Urinary Protein Excretion ([2]; 200 mpk in-feed, week 16): 452.2 ± 27.6 mg/24 h
- UPCR (urinary protein/creatinine ratio) ([2]; 200 mpk in-feed, week 16): 26.3 ± 1.5 mg/mg
- 24 h Urinary Protein Excretion ([2]; 200 mpk in-feed, week 21): 489.0 ± 28.6 mg/24 h
- UPCR (urinary protein/creatinine ratio) ([2]; 200 mpk in-feed, week 21): 28.1 ± 1.6+ mg/mg
- 24 h Urinary Protein Excretion ([2]; 200 mpk in-feed, week 24): 541.6 ± 32.3 mg/24 h
- UPCR (urinary protein/creatinine ratio) ([2]; 200 mpk in-feed, week 24): 32.0 ± 1.9 mg/mg
- 24 h Urinary Protein Excretion ([2]; 200 mpk in-feed, week 28): 646.2 ± 44.6 mg/24 h
- UPCR (urinary protein/creatinine ratio) ([2]; 200 mpk in-feed, week 28): 36.5 ± 2.3 mg/mg
- 24 h Urinary Protein Excretion ([2]; 200 mpk in-feed, week −2): 122.3 ± 9.5 mg/24 h
- UPCR (urinary protein/creatinine ratio) ([2]; 200 mpk in-feed, week −2): 10.7 ± 0.9 mg/mg
- 24 h Urinary Protein Excretion ([2]; 400 mpk in-feed, week 1): 138.5 ± 11.3 mg/24 h
- UPCR (urinary protein/creatinine ratio) ([2]; 400 mpk in-feed, week 1): 12.3 ± 0.9 mg/mg
- 24 h Urinary Protein Excretion ([2]; 400 mpk in-feed, week 2): 148.8 ± 12.3 mg/24 h
- UPCR (urinary protein/creatinine ratio) ([2]; 400 mpk in-feed, week 2): 12.5 ± 0.9 mg/mg
- 24 h Urinary Protein Excretion ([2]; 400 mpk in-feed, week 4): 148.0 ± 8.3 mg/24 h
- UPCR (urinary protein/creatinine ratio) ([2]; 400 mpk in-feed, week 4): 12.7 ± 0.6 mg/mg
- 24 h Urinary Protein Excretion ([2]; 400 mpk in-feed, week 6): 162.6 ± 11.7 mg/24 h
- UPCR (urinary protein/creatinine ratio) ([2]; 400 mpk in-feed, week 6): 13.8 ± 0.9 mg/mg
- 24 h Urinary Protein Excretion ([2]; 400 mpk in-feed, week 8): 224.8 ± 16.3 mg/24 h
- UPCR (urinary protein/creatinine ratio) ([2]; 400 mpk in-feed, week 8): 17.8 ± 1.2 mg/mg
- 24 h Urinary Protein Excretion ([2]; 400 mpk in-feed, week 12): 358.4 ± 19.9 mg/24 h
- UPCR (urinary protein/creatinine ratio) ([2]; 400 mpk in-feed, week 12): 26.9 ± 1.5 mg/mg
- 24 h Urinary Protein Excretion ([2]; 400 mpk in-feed, week 16): 360.5 ± 19.7++ mg/24 h
- UPCR (urinary protein/creatinine ratio) ([2]; 400 mpk in-feed, week 16): 20.9 ± 1.0++ mg/mg
- 24 h Urinary Protein Excretion ([2]; 400 mpk in-feed, week 21): 448.1 ± 19.6 mg/24 h
- UPCR (urinary protein/creatinine ratio) ([2]; 400 mpk in-feed, week 21): 26.0 ± 1.3++ mg/mg
- 24 h Urinary Protein Excretion ([2]; 400 mpk in-feed, week 24): 483.8 ± 27.1++ mg/24 h
- UPCR (urinary protein/creatinine ratio) ([2]; 400 mpk in-feed, week 24): 28.1 ± 1.7++ mg/mg
- 24 h Urinary Protein Excretion ([2]; 400 mpk in-feed, week 28): 554.9 ± 28.3++ mg/24 h
- UPCR (urinary protein/creatinine ratio) ([2]; 400 mpk in-feed, week 28): 31.2 ± 1.7++ mg/mg
- 24 h Urinary Protein Excretion ([2]; 400 mpk in-feed, week −2): 127.0 ± 11.0 mg/24 h
- UPCR (urinary protein/creatinine ratio) ([2]; 400 mpk in-feed, week −2): 10.8 ± 0.9 mg/mg
- effect on renal fibrosis score vs Obese Vehicle ([3]; 400 mpk at week 28): significantly decreased
- markers of renal fibrosis [3, 4]: improvement in markers of renal fibrosis
- renal fibrosis score (expressed as 0-5) ([3]; 200 mpk in-feed): 2.7 ± 0.1
- renal fibrosis score (expressed as 0-5) ([3]; 400 mpk in-feed): 2.2 ± 0.1
